Experimental data as given in ChEMBL document CHEMBL1157957, “9,11-Secosterols from the soft corals Sinularia lochmodes and Sinularia leptoclados” (J Nat Prod, 2006).
In brackets after ≈: the same amount, converted by molar mass.

Legend:
Type in all cases: functional, cell-based
MDA-MB-231 = assay: Cytotoxicity against human MDA-MB-231 cells by MTT assay
A549 = assay: Cytotoxicity against human A549 cells by MTT assay
MCF7 = assay: Cytotoxicity against human MCF7 cells by MTT assay
HepG2 = assay: Cytotoxicity against human HepG2 cells by MTT assay

Structure (SMILES) | IC50 (MDA-MB-231) | IC50 (A549) | IC50 (MCF7) | IC50 (HepG2)
C=C(CC[C@@H](C)[C@H]1CC[C@@H]([C@@H]2CC=C3C[C@@H](O)CC[C@]3(C)C2=O)[C@]1(C)CCO)C(C)C | 9.9 µg/mL (≈ 23 µM) | 9.1 µg/mL (≈ 21.1 µM) | 4.5 µg/mL (≈ 10.4 µM) | 9.1 µg/mL (≈ 21.1 µM)
CC(C)C(C)CC[C@@H](C)[C@H]1CC[C@@H]([C@@H]2CC=C3C[C@@H](O)CC[C@]3(C)C2=O)[C@]1(C)CCO (stereo not given in full) | 15 µg/mL (≈ 34.7 µM) | 16.8 µg/mL (≈ 38.8 µM) | 15.7 µg/mL (≈ 36.3 µM) | 14.1 µg/mL (≈ 32.6 µM)
COc1cccc2c1C(=O)c1c(O)c3c(c(O)c1C2=O)C[C@@](O)(C(=O)CO)C[C@@H]3O[C@H]1C[C@H](N)[C@H](O)[C@H](C)O1 [DOXORUBICIN] |  | 0.4 µg/mL (≈ 0.736 µM) | 0.4 µg/mL (≈ 0.736 µM) | 0.3 µg/mL (≈ 0.552 µM)
C=C(CC[C@@H](C)[C@H]1CC[C@@H]([C@@H]2CC[C@H]3C[C@@H](O)CC[C@]3(C)C2=O)[C@]1(C)CCO)C(C)C | 11.3 µg/mL (≈ 26.1 µM) | 9.8 µg/mL (≈ 22.6 µM) | 9.2 µg/mL (≈ 21.3 µM) | 8.2 µg/mL (≈ 19 µM)
